Source: patent US20250210194A1, “METHODS AND SYSTEMS FOR D[…] HETEROGENEITY” (Foundation Medicine, Inc., priority 2022, published 2025)

Test system: EGFR driver alteration-positive NSCLC patients
Experiment: Progression free survival (PFS) from start of 1st line Osimertinib in a real-world NSCLC patient cohort (Kaplan Meier)
Format: in vivo, human
Conditions: for median progression free survival (mPFS): 45 patients, 1st line Osimertinib
Source text: Starting with a patient cohort of 15,035 patients, the data was filtered (for biopsy type and bait set). The data was then filtered to exclude data for patients for whom a computational tumor purity was less than or equal to 20% or for whom a computational tumor purity value was missing. The remaining patient data was divided according to whether the samples were early-stage specimens, late-stage specimens, or of ambiguous origin. For the late-stage specimens, data for patients who were first diagnosed prior to Jan. […] Finally, data was selected for N=135 1st line Osimertinib-treated, EGFR driver alteration-positive NSCLC patients for whom tumor samples were sequenced at most a year prior to start of therapy.
The group of 135 patients were then divided into three tertiles with 45 patients each. Progression free survival (PFS) from start of 1st line Osimertinib was determined as follows: • Index state was the start of 1st line therapy. • Progression date: for patients who received a subsequent line of therapy, the event date was the earliest progression event that occurred more than 14 days after the index date, or date of death, provided that the progression event or date of death occurred before the start date of the subsequent line of therapy plus 14 days. For patients without a subsequent line of therapy, the event date was the earliest progression event that occurred more than 14 days after the index date, or the date of death. • Censor date: patients with a subsequent line of therapy were censored at their last clinic note date if it occurred between the index date and the start date of the subsequent line of therapy plus 14 days. Patients for whom the last clinic note date was not available within this window were censored at their last date of confirmed structured activity (i.e., the last available visit date within the Visit Table) within this time window. Patients without a subsequent line of therapy were censored at their last clinic note date.

## C=CC(=O)Nc1cc(Nc2nccc(-c3cn(C)c4ccccc34)n2)c(OC)cc1N(C)CCN(C)C [Osimertinib]
First tertile (lowest tumor heterogeneity score)
  median progression free survival (mPFS): 16.5 months
High score group: tumor heterogeneity score >=1, 1st line Osimertinib
  median PFS: 10.8 months
Low score group: tumor heterogeneity score <1, 1st line Osimertinib
  median PFS: 16.0 months
Score category High (THS >=1), EGFR CCF category High (CCF >=0.5), N=74
  mPFS: 11.11
Score category High (THS >=1), EGFR CCF category Low (CCF <0.5), N=12
  mPFS: 6.54 months
Score category Low (THS <1), EGFR CCF category High (CCF >=0.5), N=39
  mPFS: 16.01 months
Second tertile (intermediate tumor heterogeneity score)
  median progression free survival (mPFS): 10.5 months
Third tertile (highest tumor heterogeneity score)
  median progression free survival (mPFS): 11.9 months
Whole cohort, N=135 EGFR driver alteration-positive NSCLC patients
  Median progression free survival (mPFS) from start of 1st line Osimertinib: 12.7 months
